# Entries after “also recorded” stand apart in the source; their conditions may differ.
# Legend:
# [1] = test system: HPV16 E6; details: ref [17]; cited from earlier work
# From the text: In previous work, we therefore followed an alternative strategy to screen for E6 inhibitors. […] In order to identify possible structural determinants for this discrepancy, we compared the amino acid sequences of the contact region in HPV16 E6 with the corresponding domain of HPV18 E6.
# [2] = test system: wt HPV16 E6; assay: Mammalian two-hybrid assay, wt HPV16 E6; format: cell-based; details: HeLa; peptide-GAL4-BD + wt HPV16 E6-VP16-AD; relative to pACT control = 1.0; three experiments in duplicate
# From the text: Results were obtained from three individual experiments, each performed in duplicates. Standard deviations are indicated. Asterisks above horizontal lines indicate statistically significant differences from pACT-transfected cells, with p-values of ≤0.001 (***). […] The horizontal line indicates 1.5-fold inhibition. Individual amino acid exchanges are indicated below each column. Error bars indicate standard deviation values. (D) Statistical analysis of the differential binding behaviour of HPV16 E6 mutants 16E6R55A and 16E6Y70A. […] Asterisks above the horizontal lines indicate statistically significant reductions of luciferase activities, with p-values of ≤0.01 (**) or ≤0.001 (***). Error bars indicate standard deviation values.
# HeLa (HPV18-positive) and MRI-H-186 (HPV16-positive) cervical carcinoma cells, and H1299 lung cancer cells were grown in DMEM (pH 7.2), supplemented with 10% fetal bovine serum (Gibco Life Technologies, Carlsbad, CA, USA), 2 mM L-glutamine, 100 U/ml penicillin and 100 µg/ml streptomycin (Sigma-Aldrich, Saint Lois, MO). Plasmids were transfected by calcium phosphate co-precipitation as described. […] E6 constructs used in Figure 7C contain an additional flag-tag between E6 and the VP16-AD. Mutant derivatives of HPV16, HPV18 and HPV31 E6, as specified in the text, were generated by site directed mutagenesis and verified by DNA sequencing. […]
sequence,measurement,setting,value
KEKEEYNSNSSSIASIGLI [pep11**m],binding to HPV16 E6 (in words),[1],defective for E6 binding
same,increase of luciferase activity (intracellular E6/peptide binding),[2],did not stimulate luciferase activities; also recorded: does not bind to HPV16 E6
